In publication PMC10770618, “A simple assay for inhibitors of mycobacterial oxidative phosphorylation” (The Journal of Biological Chemistry, 2023):
Read-outs that look alike come from different tables or passages of the source.

Target: T1, CIII2CIV2 (Complex III2IV2, cytochrome bcc-aa3 supercomplex) (Mycolicibacterium smegmatis, UniProt A0R052+I7GD61)
T1 construct: gene MSMEG_4263; CIII2CIV2 in IMVs from strain QcrB-3×FLAG (3×FLAG tag at the C terminus of the QcrB subunit); with other subunits of the CIII2CIV2 supercomplex
Test: succinate-driven acidification of inverted membrane vesicles (ACMA fluorescence); no inhibition of ATP-driven acidification
Assay type: biochemical

SMILES	IC50 (read-out: IC50) [nM]	IC50 [nM]
Cc1c(OCC(F)(F)F)ccnc1CSc1nc2ccccc2[nH]1 [LPZS, lansoprazole sulfide]	~860	–
CCc1nc2ccc(Cl)cn2c1C(=O)NCc1ccc(N2CCC(c3ccc(OC(F)(F)F)cc3)CC2)cc1 [Q203, telacebec]	–	~140
